Laboratory results from PubChem BioAssay (NCI).
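Results reflect a 48-hour exposure of cells in 96-well plates to compound at five concentrations. Definition used: TGI = concentration required for complete inhibition of growth.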

Assays:
Test in all cases: NCI tumour cell line growth inhibition, 48 h
[1] = test system: 786-0 renal
[2] = test system: A498 renal
[3] = test system: A549 NSCLC
[4] = test system: ACHN renal
[5] = test system: CCRF-CEM leukemia
[6] = test system: COLO 205 colon
[7] = test system: DLD-1 colon
[8] = test system: DMS 273 small cell lung
[9] = test system: EKVX NSCLC
[10] = test system: HCC-2998 colon
[11] = test system: HCT-116 colon
[12] = test system: HCT-15 colon
[13] = test system: HL-60(TB) leukemia
[14] = test system: HOP-18 NSCLC
[15] = test system: HOP-62 NSCLC
[16] = test system: HT29 colon
[17] = test system: IGROV1 ovarian
[18] = test system: K-562 leukemia
[19] = test system: KM12 colon
[20] = test system: KM20L2 colon
[21] = test system: LOX IMVI melanoma
[22] = test system: LXFL 529 NSCLC
[23] = test system: M14 melanoma
[24] = test system: M19-MEL melanoma
[25] = test system: MALME-3M melanoma
[26] = test system: MOLT-4 leukemia
[27] = test system: NCI-H226 lung
[28] = test system: NCI-H23 lung
[29] = test system: NCI-H460 lung
[30] = test system: NCI-H522 lung
[31] = test system: OVCAR-3 ovarian
[32] = test system: OVCAR-4 ovarian
[33] = test system: OVCAR-5 ovarian
[34] = test system: OVCAR-8 ovarian
[35] = test system: RXF 393 renal
[36] = test system: RXF-631 renal
[37] = test system: SF-268 CNS
[38] = test system: SF-295 CNS
[39] = test system: SF-539 CNS
[40] = test system: SK-MEL-2 melanoma
[41] = test system: SK-MEL-28 melanoma
[42] = test system: SK-MEL-5 melanoma
[43] = test system: SK-OV-3 ovarian
[44] = test system: SN12C renal
[45] = test system: SNB-19 CNS
[46] = test system: SNB-75 CNS
[47] = test system: SNB-78 CNS
[48] = test system: SR leukemia
[49] = test system: SW-620 colon
[50] = test system: TK-10 renal
[51] = test system: U251 CNS
[52] = test system: UACC-257 melanoma
[53] = test system: UO-31 renal
[54] = test system: XF 498 CNS
[55] = test system: DMS 114 small cell lung
[56] = test system: HOP-92 NSCLC
[57] = test system: RPMI-8226 leukemia
[58] = test system: UACC-62 melanoma
[59] = test system: CAKI-1 renal

Molecule `COC(=O)C(CCCC1(c2ccccc2)OCCO1)C(C)=O` (stereo unspecified) has a TGI [1] greater than 100 µM, a TGI [2] greater than 100 µM and a TGI [3] greater than 100 µM. The TGI [4] was greater than 100 µM, the TGI [5] was greater than 100 µM and the TGI [6] was greater than 100 µM. It also gave a TGI [7] greater than 100 µM, a TGI [8] greater than 100 µM and a TGI [9] greater than 100 µM. For the same molecule, the TGI [10] was greater than 100 µM, the TGI [11] was greater than 100 µM and the TGI [12] was greater than 100 µM. For the same molecule, the TGI [13] was greater than 100 µM, the TGI [14] was greater than 100 µM and the TGI [15] was greater than 100 µM. The TGI [16] was greater than 100 µM, the TGI [17] was greater than 100 µM and the TGI [18] was greater than 100 µM. It also gave a TGI [19] greater than 100 µM, a TGI [20] greater than 100 µM and a TGI [21] greater than 100 µM. The TGI [22] was greater than 100 µM, the TGI [23] was greater than 100 µM and the TGI [24] was greater than 100 µM. It also gave a TGI [25] greater than 100 µM, a TGI [26] greater than 100 µM and a TGI [27] greater than 100 µM. For the same molecule, the TGI [28] was greater than 100 µM, the TGI [29] was greater than 100 µM and the TGI [30] was greater than 100 µM. For the same molecule, the TGI [31] was greater than 100 µM, the TGI [32] was greater than 100 µM and the TGI [33] was greater than 100 µM. It also gave a TGI [34] greater than 100 µM, a TGI [35] greater than 100 µM and a TGI [36] greater than 100 µM. For the same molecule, the TGI [37] was greater than 100 µM, the TGI [38] was greater than 100 µM and the TGI [39] was greater than 100 µM. The TGI [40] was greater than 100 µM, the TGI [41] was greater than 100 µM and the TGI [42] was greater than 100 µM. It also gave a TGI [43] greater than 100 µM, a TGI [44] greater than 100 µM and a TGI [45] greater than 100 µM. The TGI [46] was greater than 100 µM, the TGI [47] was greater than 100 µM and the TGI [48] was greater than 100 µM. For the same molecule, the TGI [49] was greater than 100 µM, the TGI [50] was greater than 100 µM and the TGI [51] was greater than 100 µM. It also gave a TGI [52] greater than 100 µM, a TGI [53] greater than 100 µM and a TGI [54] greater than 100 µM.
For `COc1ccc2oc3c4c2c1CCC4CCC3=O` (stereo unspecified), the TGI [1] was greater than 100 µM, the TGI [2] was greater than 100 µM and the TGI [3] was greater than 100 µM. The TGI [4] was greater than 100 µM, the TGI [5] was greater than 100 µM and the TGI [6] was greater than 100 µM. The TGI [55] was greater than 100 µM, the TGI [8] was greater than 100 µM and the TGI [9] was greater than 100 µM. For the same molecule, the TGI [10] was greater than 100 µM, the TGI [13] was greater than 100 µM and the TGI [15] was greater than 100 µM. The TGI [56] was greater than 100 µM, the TGI [16] was greater than 100 µM and the TGI [17] was greater than 100 µM. The TGI [18] was greater than 100 µM, the TGI [19] was greater than 100 µM and the TGI [21] was greater than 100 µM. It also gave a TGI [22] greater than 100 µM, a TGI [23] greater than 100 µM and a TGI [24] greater than 100 µM. The TGI [25] was greater than 100 µM, the TGI [26] was greater than 100 µM and the TGI [28] was greater than 100 µM. The TGI [29] was greater than 100 µM, the TGI [30] was greater than 100 µM and the TGI [31] was greater than 100 µM. It also gave a TGI [32] greater than 100 µM, a TGI [33] greater than 100 µM and a TGI [34] greater than 100 µM. For the same molecule, the TGI [57] was greater than 100 µM, the TGI [35] was greater than 100 µM and the TGI [36] was greater than 100 µM. The TGI [37] was greater than 100 µM, the TGI [38] was greater than 100 µM and the TGI [39] was greater than 100 µM. The TGI [40] was greater than 100 µM, the TGI [41] was greater than 100 µM and the TGI [42] was greater than 100 µM. It also gave a TGI [43] greater than 100 µM, a TGI [44] greater than 100 µM and a TGI [45] greater than 100 µM. For the same molecule, the TGI [46] was greater than 100 µM, the TGI [47] was greater than 100 µM and the TGI [48] was greater than 100 µM. It also gave a TGI [49] greater than 100 µM, a TGI [50] greater than 100 µM and a TGI [51] greater than 100 µM. The TGI [52] was 31.2 µM, the TGI [58] was greater than 100 µM and the TGI [53] was 99.5 µM. The TGI [54] was greater than 100 µM.
`CCCN(CCCC(NC(C)=O)C(=O)NCc1ccccc1)C(=O)NC` (stereo unspecified) was tested, and the TGI [1] was greater than 100 µM, the TGI [2] was greater than 100 µM and the TGI [3] was greater than 100 µM. For the same molecule, the TGI [4] was greater than 100 µM, the TGI [59] was greater than 100 µM and the TGI [5] was greater than 100 µM. The TGI [6] was greater than 100 µM, the TGI [7] was greater than 100 µM and the TGI [55] was greater than 100 µM. The TGI [8] was greater than 100 µM, the TGI [9] was greater than 100 µM and the TGI [10] was greater than 100 µM. For the same molecule, the TGI [11] was greater than 100 µM, the TGI [12] was greater than 100 µM and the TGI [15] was greater than 100 µM. For the same molecule, the TGI [56] was greater than 100 µM, the TGI [16] was greater than 100 µM and the TGI [17] was greater than 100 µM. It also gave a TGI [18] greater than 100 µM, a TGI [19] greater than 100 µM and a TGI [20] greater than 100 µM. It also gave a TGI [21] greater than 100 µM, a TGI [22] greater than 100 µM and a TGI [23] greater than 100 µM. The TGI [24] was greater than 100 µM, the TGI [25] was greater than 100 µM and the TGI [26] was greater than 100 µM. The TGI [27] was greater than 100 µM, the TGI [28] was greater than 100 µM and the TGI [29] was greater than 100 µM. It also gave a TGI [30] greater than 100 µM, a TGI [31] greater than 100 µM and a TGI [32] greater than 100 µM. For the same molecule, the TGI [33] was greater than 100 µM, the TGI [34] was greater than 100 µM and the TGI [57] was greater than 100 µM. For the same molecule, the TGI [35] was greater than 100 µM, the TGI [36] was greater than 100 µM and the TGI [37] was greater than 100 µM. It also gave a TGI [38] greater than 100 µM, a TGI [39] greater than 100 µM and a TGI [40] greater than 100 µM. For the same molecule, the TGI [41] was greater than 100 µM, the TGI [42] was greater than 100 µM and the TGI [43] was greater than 100 µM. The TGI [44] was greater than 100 µM, the TGI [45] was greater than 100 µM and the TGI [46] was 75.3 µM. The TGI [47] was greater than 100 µM, the TGI [49] was greater than 100 µM and the TGI [50] was greater than 100 µM. It also gave a TGI [51] greater than 100 µM, a TGI [52] greater than 100 µM and a TGI [58] greater than 100 µM. It also gave a TGI [53] greater than 100 µM.
